# Laboratory results: patent EP1902732A1, “PROPHYLACTIC/THERAPEUTIC AGENT FOR HER2-EXPRESSING CANCER” (Takeda Pharmaceutical Company Limited, priority 2005, dated 2006)
# Assays:
# [1] = system: BT-474 breast cancer cell; test: Viable cell count using Cell Counting Kit-F; type: cell-based, human; conditions: five days of culture
# Protocol: (§1) BT-474 breast cancer cell, MDA-MB-453 breast cancer cell, A549 non-small cell lung cancer cell and LNCaP prostate cancer cell were used as human HER2-expressing cells while MDA-MB-231 breast cancer cell and A498 kidney cancer cell (all purchased from ATCC) were used as HER2-nonexpressing cells. Each of the cells used had been seeded into a 96-plate at 500cells/150 µL/well and cultured overnight. Each of the compounds, i.e., antimycin (final concentrations: 1, 0.1, 0.01 and 0.001 µmol/L), 2,4-dinitrophenol (final concentrations: 0.6, 0.2, 0.06 and 0.02 mmol/L), metformin (final concentrations: 25, 5, 1 and 0.2 mmol/L) and AICAR (final concentrations: 25, 5, 1 and 0.2 mmol/L) was diluted with a medium and added for 50 µL/well at a time to the final concentrations mentioned above. Following five days of culture at 37°C in 5% CO2, the cells were counted using Cell Counting Kit-F (Dojindo Laboratories).
# (§2) Viable cell count using Cell Counting Kit-F was carried out by the following method according to the attached instruction. The supernatant was removed from the 96-well plate after five days of culture. Cell Counting Kit-F diluted 1000-fold with an RPMI medium (phenol red-free, serum-free) was added for 100 µL/well at a time. After 30 minutes of reaction at room temperature, fluorescence (excitation wavelength; 480 nm, fluorescent wavelength; 530 nm) was determined with a fluorescent plate reader.
# (§3) From the determination results, percentage of the fluorescence level in the wells added with the compound was determined assuming that the fluorescence level in the wells without the addition of the compound (control) is 100%, and the remaining cellular quantity was determined in % with respect to that of the control.
# (§4) BT-474 breast cancer cell, MDA-MB-453 breast cancer cell and LNCaP prostate cancer cell were used as human HER2-expressing cells while MDA-MB-231 breast cancer cell and A498 kidney cancer cell (all purchased from ATCC) were used as HER2-nonexpressing cells. Each of the cells used had been seeded into a 96-well plate at 500 cells/150 µL/well and cultured overnight. Troglitazone (final concentrations: 25, 6.25 and 1.56 µmol/L) was diluted with a medium, and added for 50 µL/well at a time to the final concentrations mentioned above. Following five days of culture at 37°C in 5% CO2, the cells were counted using Cell Counting Kit-F (Dojindo Laboratories).
# as §3, with “troglitazone” for “the compound”
# [2] = system: LNCaP prostate cancer cell; test: Viable cell count using Cell Counting Kit-F; type: cell-based, human; conditions: five days of culture
# Protocol: as §1, §2, §3, §4
# as §3, with “troglitazone” for “the compound”
# [3] = system: MDA-MB-453 breast cancer cell; test: Viable cell count using Cell Counting Kit-F; type: cell-based, human; conditions: five days of culture
# Protocol: as §1, §2, §3, §4
# as §3, with “troglitazone” for “the compound”
# [4] = system: A498 kidney cancer cell; test: Viable cell count using Cell Counting Kit-F; type: cell-based; conditions: five days of culture
# Protocol: as §1, §2, §3, §4
# as §3, with “troglitazone” for “the compound”
# [5] = system: MDA-MB-231 breast cancer cell; test: Viable cell count using Cell Counting Kit-F; type: cell-based; conditions: five days of culture
# Protocol: as §1, §2, §3, §4
# as §3, with “troglitazone” for “the compound”
# [6] = system: HER2; test: Western blotting of phosphorylated HER2 in SK-BR-3 cells; type: cell-based, human; conditions: Example 4, medium glucose 0.1 mg/mL, 5 mg/mL, two hours
# Protocol: (§5) HER2-expressing human cancer cell line SK-BR-3 (purchased from ATCC) was seeded into a 24-multiwell plate (4.0 x 10^5 cells/well) and cultured overnight in a carbon dioxide gas incubator (5% CO2, 37°C). Then, the medium was exchanged for a medium with a glucose content of 0.1 mg/mL and cultured for another 2 hours. A glucose antimetabolite 2-deoxyglucose was added to a final concentration of 5 mg/mL. Two hours later, the broth was removed and the cells were lysed with an SDS sample buffer (200 µL). This cell lysate (8 µL) was separated by an SDS-PAGE method (gel concentration: 7.5-15%) (Shagger et al., Analytical Biochemistry, No. 166, pp. 368-379, 1987). Then, western blotting analysis was performed in the same manner as in Example 1 to detect phosphorylated HER2, phosphorylated Akt and phosphorylated MAPK.
# [7] = system: Akt; test: Western blotting of phosphorylated Akt in SK-BR-3 cells; type: cell-based, human; conditions: Example 4, medium glucose 0.1 mg/mL, 5 mg/mL, two hours
# Protocol: as §5
# [8] = system: MAPK; test: Western blotting of phosphorylated MAPK in SK-BR-3 cells; type: cell-based, human; conditions: Example 4, medium glucose 0.1 mg/mL, 5 mg/mL, two hours
# Protocol: as §5
# [9] = system: HER2; test: Western blotting of phosphorylated HER2 in BT-474 cells; type: cell-based, human
# Protocol: (§6) Human HER2-expressing human breast cancer cell line BT-474 (purchased from American Tissue Culture Collection (ATCC)) was seeded into a 24-multiwell plate (BT-474: 1.2 x 10^5 cells/well), and cultured overnight in a carbon dioxide gas incubator (5% CO2, 37°C). A 4-fold dilution series of a mitochondrial respiratory chain complex inhibiting compound (complex I: rotenone, complex III: antimycin, complex V: oligomycin: Wako Pure Chemical Industries) was added starting from a final concentration of 1 µmol/L in 5 steps while continuing culture. After 2 hours, the broth was removed, and the cells were lysed with an SDS sample buffer (200 µL). Western blotting analysis was performed as follows. Specifically, this cell lysate (8 µL) was separated by an SDS-PAGE method (gel concentration: 7.5-15%) (Analytical Biochemistry, No. 166, pp. 368-379, 1987), and transferred to a nitrocellulose membrane (BioRad). Then, an antibody specific to phosphorylated HER2 (Cell signaling technology, Code# 2244), an anti-phosphorylated Akt antibody specific to downstream antiapoptotic signal transducing molecule Akt (Cell signaling technology, Code# 9271) and an anti-phosphorylated MAPK antibody specific to downstream proliferation signal transducing molecule MAPK (Cell signaling technology, Code# 9101) were used to detect the antibody with an ECL system (Amersham) to quantify the amount of phosphorylated protein by an image analysis.
# (§7) Human HER2-expressing human cancer cell line BT-474 (purchased from ATCC) was seeded into a 24-multiwell plate (1.2 x 10^5 cells/well) and cultured overnight in a carbon dioxide gas incubator (20% O2, 5% CO2, 37°C). A 3-fold dilution series of metformin that activates AMPK (The Journal of Biological Chemistry, Vol. 279, No. 42, pp. 43940-43951, 2004) was added starting from a final concentration of 15 mmol/L in 5 steps while continuing culture. Two hours later, the broth was removed and the cells were lysed with an SDS sample buffer (200 µL). This cell lysate (8 µL) was separated by an SDS-PAGE method (gel concentration: 7.5-15%) (Analytical Biochemistry, No. 166, pp. 368-379, 1987). Then, western blotting analysis was performed in the same manner as in Example 1 to quantify phosphorylated HER2, phosphorylated Akt and phosphorylated MAPK.
# Human HER2-expressing human breast cancer cell line BT-474 (purchased from American Tissue Culture Collection (ATCC)) was seeded into a 24-multiwell plate (BT-474: 1.2 x 10^5 cells/well), and cultured overnight in a carbon dioxide gas incubator (5% CO2, 37°C). Mitochondrial respiratory chain complex 1-inhibiting compound rotenone (Wako Pure Chemical Industries) was added in 5 steps at final concentrations of 1, 0.333, 0.111, 0.033 and 0.011 µmol/L while continuing culture. Two hours later, the broth was removed and the cells were lysed with an SDS sample buffer (200 µL). Then, this cell lysate was used to perform western blotting analysis. Specifically, this cell lysate (8 µL) was separated by an SDS-PAGE method (gel concentration: 7.5-15%) (Analytical Biochemistry, No. 166, pp. 368-379, 1987) and transferred to a nitrocellulose membrane (BioRad). Then, an antibody specific to phosphorylated HER2 (Cell signaling technology, Code# 2244), an AMPK antibody specific to AMPK (Cell signaling technology, Code# 2535) and an anti-phosphorylated AMPK antibody specific to phosphorylated AMPK (Cell signaling technology, Code# 2532) were used to detect the antibody by chemiluminescent detection with an ECL system (Amersham) to quantify an amount of phosphorylated protein with LAS-1000 plus image analysis device (FUJIFILM).
# Human HER2-expressing human breast cancer cell line BT-474 (purchased from American Tissue Culture Collection (ATCC)) was seeded into a 24-multiwell plate (BT-474: 1.2 x 10^5 cells/well) and cultured overnight in a carbon dioxide gas incubator (5% CO2, 37°C). […]
# [10] = system: Akt; test: Western blotting of phosphorylated Akt in BT-474 cells; type: cell-based, human
# Protocol: as §6, §7
# [11] = system: MAPK; test: Western blotting of phosphorylated MAPK in BT-474 cells; type: cell-based, human
# Protocol: as §6, §7
# [12] = system: A549 non-small cell lung cancer cell; test: Viable cell count using Cell Counting Kit-F; type: cell-based, human; conditions: HER2-expressing cancer, five days of culture
# Protocol: as §1, §2, §3
# [13] = system: DU145; test: Viable cell count using Cell Counting Kit-F; type: cell-based; conditions: HER2-nonexpressing cancer, five days of culture
# [14] = system: phosphorylated acetyl-CoA carboxylase (ACC); test: Western blotting of phosphorylated ACC in BT-474 cells; type: cell-based, human; conditions: Example 7, two hours, antimycin 1-0.01 nmol/L, oligomycin 100-1 ng/mL, 2,4-dinitrophenol 300-3 µmol/L
# Protocol: (§8) Human HER2-expressing human breast cancer cell line BT-474 (purchased from American Tissue Culture Collection (ATCC)) was seeded into a 24-multiwell plate (BT-474: 1.2 x 10^5 cells/well) and cultured overnight in a carbon dioxide gas incubator (5% CO2, 37°C). As an energy metabolism inhibitor having a mechanism that differed from that of rotenone, mitochondrial respiratory chain complex III-inhibiting compound antimycin (Wako Pure Chemical Industries) was added to final concentrations of 1, 0.3, 0.1, 0.03 and 0.01 nmol/L while continuing culture. Using another plate, mitochondrial respiratory chain complex V-inhibiting compound oligomycin (Wako Pure Chemical Industries) was added to final concentrations of 100, 30, 10, 3 and 1 ng/mL while continuing culture. In addition, 2,4-dinitrophenol was added to 300, 100, 30, 10 and 3 µmol/L while continuing culture. Two hours after the addition of the agent, the broth was removed and the cells were lysed with an SDS sample buffer (200 µL). Then, this cell lysate was used to perform western blotting analysis. Specifically, this cell lysate (8 µL) was separated by an SDS-PAGE method (gel concentration: 7.5-15%) (Analytical Biochemistry, No. 166, pp. 368-379, 1987) and transferred onto a nitrocellulose membrane (BioRad). Then, an antibody specific to phosphorylated HER2 (Cell signaling technology, Code# 2244), pACC antibody specific to phosphorylated acetyl-CoA carboxylase (ACC) (Cell signaling technology, Code# 3661) and anti-phosphorylated S6K antibody specific to phosphorylated S6 kinase (S6K) (Cell signaling technology, Code# 9209) were used to detect the antibody by chemiluminescent detection with an ECL system (Amersham) to quantify an amount of phosphorylated protein with LAS-1000 plus image analysis device (FUJIFILM).
# [15] = system: phosphorylated S6 kinase (S6K); test: Western blotting of phosphorylated S6K in BT-474 cells; type: cell-based, human; conditions: Example 7, two hours, antimycin 1-0.01 nmol/L, oligomycin 100-1 ng/mL, 2,4-dinitrophenol 300-3 µmol/L
# Protocol: as §8
# [16] = Example 5, 3-fold dilution series from 15 mmol/L in 5 steps, two hours
# [17] = Example 2, 4-fold dilution series from 1 µmol/L in 5 steps, 2 hours
smiles,measurement,setting,value
Cc1c(C)c2c(c(C)c1O)CCC(C)(COc1ccc(CC3SC(=O)NC3=O)cc1)O2 (stereo not drawn) [troglitazone],inhibition at 25 µM,"[1]; Homo sapiens, BT-474, 120 h, BT474 cell, 25 µmol/L, read-out: proliferation inhibited to (remaining cellular quantity in % with respect to that of the control)",50%
same,inhibition at 25 µM,"[2]; Homo sapiens, 120 h, LNCaP cell, 25 µmol/L, read-out: proliferation inhibited to (remaining cellular quantity in % with respect to that of the control)",48%
same,inhibition at 25 µM,"[3]; Homo sapiens, MDA-MB-453, 120 h, MB453 cell, 25 µmol/L, read-out: proliferation inhibited to (remaining cellular quantity in % with respect to that of the control)",25%
same,inhibition at 25 µM,"[4]; Homo sapiens, 120 h, A498 cell, HER2-nonexpressing, 25 µmol/L, read-out: proliferation inhibited to (remaining cellular quantity in % with respect to that of the control)",105%
same,inhibition at 25 µM,"[5]; Homo sapiens, 120 h, MDA-MB-231 cell, HER2-nonexpressing, 25 µmol/L, read-out: proliferation inhibited to (remaining cellular quantity in % with respect to that of the control)",100%
O=CC[C@@H](O)[C@H](O)[C@H](O)CO [2-deoxyglucose],HER2 phosphorylation,[6],suppressed phosphorylation of each protein
same,Akt phosphorylation,[7],suppressed phosphorylation of each protein
same,MAPK phosphorylation,[8],suppressed phosphorylation of each protein
CN(C)C(=N)N=C(N)N [metformin],HER2 phosphorylation,[9]; [16],concentration-dependent suppression of HER2 phosphorylation
same,Akt phosphorylation,[10]; [16],suppressions of Akt and MAPK phosphorylations were also confirmed
same,MAPK phosphorylation,[11]; [16],suppressions of Akt and MAPK phosphorylations were also confirmed
same,minimum concentrations for inhibiting cell proliferation for 50% or more,"[1]; BT474, HER2-expressing cancer",1 mmol/L
same,minimum concentrations for inhibiting cell proliferation for 50% or more,"[2]; LNCaP, HER2-expressing cancer",1 mmol/L
same,minimum concentrations for inhibiting cell proliferation for 50% or more,"[3]; MB453, HER2-expressing cancer",1 mmol/L
same,minimum concentrations for inhibiting cell proliferation for 50% or more,[12],5 mmol/L
same,minimum concentrations for inhibiting cell proliferation for 50% or more,[13],>25 mmol/L
same,minimum concentrations for inhibiting cell proliferation for 50% or more,"[4]; A498, HER2-nonexpressing cancer",>25 mmol/L
same,minimum concentrations for inhibiting cell proliferation for 50% or more,"[5]; MB231, HER2-nonexpressing cancer",>25 mmol/L
CC[C@H]1/C=C/C=C/C[C@@H](C)[C@H](O)[C@@](C)(O)C(=O)[C@@H](C)[C@H](O)[C@@H](C)C(=O)[C@@H](C)[C@H](O)[C@@H](C)/C=C/C(=O)O[C@@H]2[C@H](C)[C@H](CC1)O[C@]1(CC[C@H](C)[C@H](C[C@@H](C)O)O1)[C@H]2C [oligomycin],HER2 phosphorylation,[9]; [17],suppression of HER2 phosphorylation was confirmed
same,HER2 phosphorylation,"[9]; Example 7, two hours, antimycin 1-0.01 nmol/L, oligomycin 100-1 ng/mL, 2,4-dinitrophenol 300-3 µmol/L",decreased dose-dependently
same,Akt phosphorylation,[10]; [17],suppressions of Akt and MAPK phosphorylations were also confirmed
same,MAPK phosphorylation,[11]; [17],suppressions of Akt and MAPK phosphorylations were also confirmed
same,phosphorylation of ACC,[14],increased dose-dependently
same,phosphorylation of S6K,[15],suppressed
